Laboratory results: ChEMBL document CHEMBL1201862, “PubChem BioAssay data set” (2004)
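Values below derive from 48-hour exposures of cells grown in 96-well plates, with endpoints linearly interpolated between the two concentrations bracketing the appropriate inhibition level. GI50 marks 50% less growth.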 The source made the active and inactive calls. Cut-off read from the data, not from the text of the source: active = GI50 up to about 1.1 µM and inactive = higher.

Columns and labels:
Assay in all cases: NCI-60 cell line screen, 48 h
NCI/ADR-RES = system: NCI/ADR-RES
EKVX = system: EKVX
NCI-H23 = system: NCI-H23
SR = system: SR
Malme-3M = system: Malme-3M
RPMI-8226 = system: RPMI-8226
SK-MEL-5 = system: SK-MEL-5
SNB-75 = system: SNB-75
OVCAR-3 = system: OVCAR-3
A549 = system: A549
K562 = system: K562
M14 = system: M14
786-0 = system: 786-0
SK-MEL-28 = system: SK-MEL-28
MDA-MB-435 = system: MDA-MB-435
LOX IMVI = system: LOX IMVI
HOP-92 = system: HOP-92
HT-29 = system: HT-29
COLO 205 = system: COLO 205
IGROV-1 = system: IGROV-1
HCT-116 = system: HCT-116
SN12C = system: SN12C
OVCAR-8 = system: OVCAR-8
MOLT-4 = system: MOLT-4
ACHN = system: ACHN
DU-145 = system: DU-145
SK-MEL-2 = system: SK-MEL-2
SF-268 = system: SF-268
OVCAR-4 = system: OVCAR-4
MDA-MB-231 = system: MDA-MB-231
MCF7 = system: MCF7
HOP-62 = system: HOP-62
SF-295 = system: SF-295
CCRF-CEM = system: CCRF-CEM
Hs-578T = system: Hs-578T
UO-31 = system: UO-31
UACC-62 = system: UACC-62
KM12 = system: KM12
SK-OV-3 = system: SK-OV-3
PC-3 = system: PC-3
UACC-257 = system: UACC-257
TK-10 = system: TK-10
NCI-H226 = system: NCI-H226
U-251 = system: U-251
MDA-N = system: MDA-N
SW-620 = system: SW-620
A498 = system: A498
HCT-15 = system: HCT-15
OVCAR-5 = system: OVCAR-5
SNB-19 = system: SNB-19
CAKI-1 = system: CAKI-1
BT-549 = system: BT-549
T47D = system: T47D
HCC 2998 = system: HCC 2998
NCI-H460 = system: NCI-H460
HL-60 = system: HL-60
SF-539 = system: SF-539

With `C=CCC(NCc1ccccc1)[C@H](OCc1ccccc1)[C@@H]1COC(C)(C)O1` (some centres undefined) the GI50 (NCI/ADR-RES) was 46.8 µM (inactive), the GI50 (EKVX) was 32.5 µM (inactive) and the GI50 (NCI-H23) was 28.3 µM (inactive). The GI50 (SR) was 21.1 µM (inactive), the GI50 (Malme-3M) was 22.6 µM (inactive) and the GI50 (RPMI-8226) was 18.5 µM (inactive). For the same compound, the GI50 (SK-MEL-5) was 23 µM (inactive), the GI50 (SNB-75) was 49 µM (inactive) and the GI50 (OVCAR-3) was 44.9 µM (inactive). The GI50 (A549) was 39 µM (inactive), the GI50 (K562) was 23.7 µM (inactive) and the GI50 (M14) was 36.2 µM (inactive). The GI50 (786-0) was 30.4 µM (inactive), the GI50 (SK-MEL-28) was 47.1 µM (inactive) and the GI50 (MDA-MB-435) was 36.1 µM (inactive). For the same compound, the GI50 (LOX IMVI) was 26 µM (inactive), the GI50 (HOP-92) was 12.7 µM (inactive) and the GI50 (HT-29) was 11.7 µM (inactive). The GI50 (COLO 205) was 14.5 µM (inactive), the GI50 (IGROV-1) was 35.8 µM (inactive) and the GI50 (HCT-116) was 23.7 µM (inactive). For the same compound, the GI50 (SN12C) was 43.4 µM (inactive), the GI50 (OVCAR-8) was 35.2 µM (inactive) and the GI50 (MOLT-4) was 23.7 µM (inactive). The GI50 (ACHN) was 42.6 µM (inactive), the GI50 (DU-145) was 97.3 µM (inactive) and the GI50 (SK-MEL-2) was 19.6 µM (inactive). For the same compound, the GI50 (SF-268) was 44.9 µM (inactive), the GI50 (OVCAR-4) was 44.7 µM (inactive) and the GI50 (MDA-MB-231) was > 100 µM (inactive). The GI50 (MCF7) was 29.4 µM (inactive), the GI50 (HOP-62) was 55.1 µM (inactive) and the GI50 (SF-295) was 27.8 µM (inactive). For the same compound, the GI50 (CCRF-CEM) was 28.1 µM (inactive), the GI50 (Hs-578T) was 24.7 µM (inactive) and the GI50 (UO-31) was 22.9 µM (inactive). The GI50 (UACC-62) was 40.6 µM (inactive), the GI50 (KM12) was 29.8 µM (inactive) and the GI50 (SK-OV-3) was 79.3 µM (inactive). The GI50 (PC-3) was 31.9 µM (inactive), the GI50 (UACC-257) was 22.9 µM (inactive) and the GI50 (TK-10) was 23.8 µM (inactive). The GI50 (NCI-H226) was 15.6 µM (inactive), the GI50 (U-251) was 37.6 µM (inactive) and the GI50 (MDA-N) was 31.8 µM (inactive). The GI50 (SW-620) was 41.9 µM (inactive), the GI50 (A498) was 45.6 µM (inactive) and the GI50 (HCT-15) was 23.7 µM. The GI50 (OVCAR-5) was 46.2 µM (inactive) and the GI50 (SNB-19) was 72.8 µM (inactive).

With `CC[C@@]1(O)C(=O)OCc2c1cc1n(c2=O)Cc2c-1nc1ccccc1c2/C=N/c1ccccc1N[C@@H]1c2cc3c(cc2[C@@H](c2cc(OC)c(O)c(OC)c2)[C@H]2C(=O)OC[C@@H]21)OCO3` the GI50 (SR) was < 0.005 µM (active), the GI50 (Malme-3M) was 0.329 µM (active) and the GI50 (RPMI-8226) was 0.175 µM (active). For the same compound, the GI50 (SK-MEL-5) was 0.0532 µM (active), the GI50 (SNB-75) was 0.028 µM (active) and the GI50 (CAKI-1) was 0.0204 µM (active). The GI50 (A549) was 0.0351 µM (active), the GI50 (M14) was 0.0239 µM (active) and the GI50 (786-0) was 0.0142 µM (active). For the same compound, the GI50 (BT-549) was 0.269 µM (active), the GI50 (T47D) was 0.014 µM (active) and the GI50 (LOX IMVI) was 0.0194 µM (active). The GI50 (HOP-92) was 0.209 µM (active), the GI50 (HCC 2998) was 0.148 µM (active) and the GI50 (HCT-116) was 0.0527 µM (active). For the same compound, the GI50 (ACHN) was 0.0106 µM (active), the GI50 (DU-145) was 0.00767 µM (active) and the GI50 (SF-268) was 0.0161 µM (active). The GI50 (OVCAR-4) was 0.427 µM (active), the GI50 (MDA-MB-231) was 1.05 µM (active) and the GI50 (MCF7) was 0.00684 µM (active). The GI50 (HOP-62) was 0.0103 µM (active), the GI50 (CCRF-CEM) was < 0.005 µM (active) and the GI50 (UACC-62) was 0.014 µM (active). For the same compound, the GI50 (PC-3) was 0.164 µM (active), the GI50 (UACC-257) was 0.278 µM (active) and the GI50 (NCI-H226) was 0.0362 µM (active). The GI50 (U-251) was 0.188 µM (active) and the GI50 (SW-620) was 0.157 µM (active).

For `COc1cc(C2=C(C#N)C(N)OC3=C2COc2ccccc23)cc(OC)c1OC` (centres undefined), the GI50 (NCI/ADR-RES) was 25.2 µM (inactive), the GI50 (EKVX) was 16.2 µM (inactive) and the GI50 (NCI-H23) was 33.9 µM (inactive). For the same compound, the GI50 (SR) was 19.5 µM (inactive), the GI50 (Malme-3M) was 11.9 µM (inactive) and the GI50 (RPMI-8226) was 46.6 µM (inactive). For the same compound, the GI50 (SK-MEL-5) was 25.2 µM (inactive), the GI50 (OVCAR-3) was 14.2 µM (inactive) and the GI50 (A549) was 17.5 µM (inactive). The GI50 (K562) was 78 µM (inactive), the GI50 (M14) was 42 µM (inactive) and the GI50 (BT-549) was 42.8 µM (inactive). For the same compound, the GI50 (SK-MEL-28) was 24.8 µM (inactive), the GI50 (MDA-MB-435) was 34.3 µM (inactive) and the GI50 (NCI-H460) was 19.4 µM (inactive). For the same compound, the GI50 (LOX IMVI) was 35.5 µM (inactive), the GI50 (HOP-92) was 40.8 µM (inactive) and the GI50 (HT-29) was 77.1 µM (inactive). The GI50 (COLO 205) was > 100 µM (inactive), the GI50 (HCC 2998) was 14.4 µM (inactive) and the GI50 (IGROV-1) was 22.9 µM (inactive). For the same compound, the GI50 (HCT-116) was 16.7 µM (inactive), the GI50 (SN12C) was 16.1 µM (inactive) and the GI50 (MOLT-4) was 3.16 µM (inactive). For the same compound, the GI50 (ACHN) was 12.6 µM (inactive), the GI50 (DU-145) was 10.6 µM (inactive) and the GI50 (SK-MEL-2) was 28.5 µM (inactive). For the same compound, the GI50 (SF-268) was 14.9 µM (inactive), the GI50 (OVCAR-4) was 5.22 µM (inactive) and the GI50 (MDA-MB-231) was 15.2 µM (inactive). For the same compound, the GI50 (MCF7) was > 100 µM (inactive), the GI50 (HOP-62) was 6.62 µM (inactive) and the GI50 (HL-60) was > 100 µM (inactive). For the same compound, the GI50 (CCRF-CEM) was 0.938 µM (active), the GI50 (UO-31) was 4.15 µM (inactive) and the GI50 (UACC-62) was 50.4 µM (inactive). The GI50 (KM12) was 81.7 µM (inactive), the GI50 (SK-OV-3) was 16.4 µM (inactive) and the GI50 (PC-3) was 16.6 µM (inactive). The GI50 (UACC-257) was 31.3 µM (inactive), the GI50 (TK-10) was 13.7 µM (inactive) and the GI50 (NCI-H226) was 30.4 µM (inactive). The GI50 (U-251) was 14.7 µM (inactive), the GI50 (MDA-N) was > 100 µM (inactive) and the GI50 (SW-620) was 50.1 µM (inactive). The GI50 (A498) was 24.5 µM (inactive), the GI50 (HCT-15) was greater than 100 µM and the GI50 (OVCAR-5) was > 100 µM (inactive). For the same compound, the GI50 (SNB-19) was 9.29 µM (inactive) and the GI50 (SF-539) was 20.4 µM (inactive).
